These results are taken from patent EP0365818A1, “Immunological detection of atrazine and atrazine derivatives” (CIBA-GEIGY AG, priority 1988, dated 1990).

Holding throughout (format): binding, Maus
Experiment [1] relates to MAb 4063-21-1 (ECACC 8808/2501). Nature of the experiment: two-step competitive ELISA (BSA-conjugated hapten on plate), anti-atrazine MAb. The conditions noted are these: for % cross-reactivity (b): (Atrazin conc. for 50 % inhibition)/(analogue conc. for 50 % inhibition) x 100; for I 50 ng/ml (a): inhibitor concentration for 50 % inhibition in competitive ELISA. The text has this:
(§1) Der prozentuale Anteil der Kreuzreaktivität soll im Rahmen dieser Erfindung definitionsgemäss durch die folgende Beziehung wiedergegeben werden: (Atrazin/Hydroxyatrazinkonzentration für 50 % Hemmung/Konzentration der s-Triazin-/Hydroxytriazinanalogen für 50 % Hemmung) x 100.
(§2) Eine 50 %ige Hemmung kann beispielsweise mit Hilfe eines kompetitiven ELISA Assays (vgl. Beispiel 8) bestimmt werden. Diese entspricht dann beispielsweise derjenigen Antigenkonzentration, die zu einer 50 %igen Hemmung der Antikörperbindung an das Träger-gebundene Antigen führt.
(§3) Der Nachweis von Atrazin und Hydroxyatrazin erfolgt mit Hilfe eines zweistufigen, kompetitiven ELISA-Tests.
(§4) BSA-konjugiertes Hapten wird zunächst in einem Natriumcarbonatpuffer (pH 9,6) (0,2 µg/Vertiefung) an Mikrotiterplatten adsorbiert und über Nacht bei einer Temperatur von 4°C inkubiert. Die restlichen freien Bindungsstellen des festen Trägermaterials werden dann durch Zugabe von BSA in Form einer 1 % Lösung blockiert.
(§5) Die Platten werden anschliessend mit PBS gewaschen, das mit 0,1 % (v/v) Polysorbat 20 angereichert ist (PBS-Tween).
(§6) 50 µl der zuvor gereinigten monoklonalen Antikörper (2 µg/ml) oder aber des Ueberstandes der Zellklone (in einer Verdünnung von 1:5 bis 1:22,5) werden a) mit 950 µl einer Standardlösung, die einen steigenden Anteil an Triazin bzw. Triazin-Analogen enthält, b) mit triazinhaltigen Wasserproben oder c) triazinhaltigen Bodenextrakten inkubiert. (Alle Verdünnungen werden in PBS-Tween vorgenommen).
(§7) Nach einer Inkubationszeit von 1 Stunde bei Raumtemperatur werden 200 µl des Gemisches zu jeder Vertiefung der Mikrotiterplatte zugegeben und der gesamte Ansatz wird für eine weitere Stunde inkubiert.
(§8) Die Vertiefungen werden anschliessend 5 x gewaschen und mit 100 µl/Vertiefung Ziegen-anti-Maus IgG Antikörper der konjugiert an alkalische Phosphatase vorliegt (Verdünnung 1:1500) beschickt und für einen Zeitraum von 1,5 Stunden inkubiert.
(§9) Nach erneutem Waschen werden 150 µl/Vertiefung des in 1 mg/ml Diethanolaminpuffer (1 mM, pH 9,8) gelösten Substrates p-Nitrophenylphosphat zu den Vertiefungen zugegeben.
(§10) Ein Farbumschlag, der proportional ist zur Menge an Antikörper, der mit dem an die Festphase gebundenen Antigen reagiert hat, wird bei einer Wellenlänge von 405 nm aufgezeichnet. Die Verdünnungen der einzelnen Proben werden so gewählt, dass man ohne Zugabe eines Inhibitors (Bo) Absorptionswerte in einem Bereich zwischen 0.3 und 0.5 erhält. Für die Kontrollen (ohne Antikörper und mit nicht nachweisbaren Mengen an Antigen) ergeben sich Werte von R ≦ 0.005. Alle Proben werden in dreifacher Ausfertigung bestimmt.
(§11) Zur Ermittlung der in einer Probe enthaltenen Menge an Atrazin/Hydroxyatrazin wird zunächst eine Eichkurve erstellt (Abb. 1), wobei B/Bo x 100 gegen die Konzentration an Inhibitor aufgetragen wird. (Bo bedeutet Absorptionsfähigkeit gemessen ohne Zugabe eines Triazininhibitors zum Antikörper, und B Absorptionsfähigkeit bei Zugabe verschieden konzentrierter Triazin-Inhibitoren) Der I₅₀-Wert gibt diejenige Konzentration des Antigens an, bei der die Antikörperbindung an die Festphase zu 50 % gehemmt wird. Der I₅₀-Wert wird mit Hilfe eines auf die vorliegenden Verhältnisse speziell angepassten ENZFITTER (Leatherbarrow, Elsevier-Biosoft)Kurvenkalkulationsprogramms bestimmt, basierend auf einer 4 Parameter umfassenden logistischen Kurve (Raab GM, 1983). Auch die quantitative Atrazin bzw. Hydroxyatrazinbestimmung in Boden- oder Wasserproben im Rahmen des ELISA wird mit Hilfe des ENZFITTER-Programms durchgeführt, wobei die Anpassung der Kurve auf Standards basiert, die auf jeder Mikrotiterplatte mitlaufen.

In experiment [2] the test system is MAb 4009-85-3 (ECACC 8808/2503). The experiment can be described thus: two-step competitive ELISA (BSA-conjugated hapten on plate), anti-hydroxyatrazine MAb. The settings on record: for % cross-reactivity (c): (Hydroxyatrazin conc. for 50 % inhibition)/(analogue conc. for 50 % inhibition) x 100; for I 50 ng/ml (a): inhibitor concentration for 50 % inhibition in competitive ELISA.
Text: as §1, §2, §3, §4, §5, §6, §7, §8, §9, §10, §11
Background: ELISA stands for enzyme-linked immunosorbent assay.

Experiment [3] relates to Mab 4009-77-20 (ECACC 8808/2502). The experiment is described as above. The conditions noted are these: for % cross-reactivity (c): (Hydroxyatrazin conc. for 50 % inhibition)/(analogue conc. for 50 % inhibition) x 100; for I 50 ng/ml (a): inhibitor concentration for 50 % inhibition in competitive ELISA.
Text: as §1, §2, §3, §4, §5, §6, §7, §8, §9, §10, §11

Turning to `CCNc1nc(NC(C)C)nc(SC)n1` [Ametryn], the “% cross-reactivity (b)” value in experiment [1] is 5,0%. Moreover, the “I 50 ng/ml (a)” value was 9 ng/mL in experiment [1], over 1000 ng/mL in experiment [2] and over 1000 ng/mL in experiment [3]. The “% cross-reactivity (c)” value in experiment [2] is on record as <0,1%; in experiment [3], <0,05%.
Regarding `CCNc1nc(NC(C)C)nc(OC)n1` [Atraton], in experiment [1], the “% cross-reactivity (b)” value is 6,4% and the “I 50 ng/ml (a)” value came to 7 ng/mL. For the same compound, in experiment [2], the “% cross-reactivity (c)” value is <0,1% and the “I 50 ng/ml (a)” value was over 1000 ng/mL. Besides, in experiment [3], the “% cross-reactivity (c)” value was <0,05% and the “I 50 ng/ml (a)” value is over 1000 ng/mL.
Regarding `CCNc1nc(Cl)nc(NC(C)C)n1` [Atrazin], the “% cross-reactivity (b)” value in experiment [1] is recorded as 100,0%. Moreover, the “% cross-reactivity (c)” value is <0,1% in experiment [2] and <0,05% in experiment [3]. Besides, the “I 50 ng/ml (a)” value in experiment [2] and in experiment [3] was over 1000 ng/mL in each case.
On to `CNc1nc(NC(C)C)nc(SC)n1` [Desmetryn], for which, in experiment [1], the “% cross-reactivity (b)” value is 0,5% and the “I 50 ng/ml (a)” value was 90 ng/mL.
Turning to `CCNc1nc(O)nc(NC(C)C)n1` [OH-Atrazin, Hydroxyatrazin], the “% cross-reactivity (b)” value in experiment [1] is 2,1%. Besides, the “I 50 ng/ml (a)” value in experiment [1] is 21 ng/mL; in experiment [2], 0,95 ng/ml; in experiment [2] (listed as Hydroxyatrazin), 0.95 ng/mL; in experiment [3], 0,5 ng/ml; in experiment [3] (listed as Hydroxyatrazin) it was 0.5 ng/mL. The “% cross-reactivity (c)” value in experiment [2] and in experiment [3] was 100,0% each time.
Consider `CNc1nc(O)nc(NC(C)C)n1` [OH-Desmetryn, Hydroxydesmetryn], for which, in experiment [1], the “% cross-reactivity (b)” value is 0,1% and the “I 50 ng/ml (a)” value was 360 ng/mL. Also, in experiment [2], the “% cross-reactivity (c)” value is 11,9% and the “I 50 ng/ml (a)” value is 8 ng/mL. In experiment [3], the “% cross-reactivity (c)” value is reported as 71,4% and the “I 50 ng/ml (a)” value is 0,7 ng/ml.
Turning to `CC(C)Nc1nc(O)nc(NC(C)C)n1` [OH-Propazin, Hydroxypropazin], in experiment [1], the “% cross-reactivity (b)” value is 8,2% and the “I 50 ng/ml (a)” value was 5,5 ng/ml. Moreover, in experiment [2], the “% cross-reactivity (c)” value is 100,0% and the “I 50 ng/ml (a)” value is 0,95 ng/ml. Besides, in experiment [3], the “% cross-reactivity (c)” value was 83,3% and the “I 50 ng/ml (a)” value was 0,6 ng/ml.
On to `CCNc1nc(O)nc(NCC)n1` [OH-Simazin, Hydroxysimazin], for which, in experiment [1], the “% cross-reactivity (b)” value was 0,3% and the “I 50 ng/ml (a)” value stood at 180 ng/mL. Also, in experiment [2], the “% cross-reactivity (c)” value is 1,5% and the “I 50 ng/ml (a)” value was 65 ng/mL. For the same compound, in experiment [3], the “% cross-reactivity (c)” value is 41,7% and the “I 50 ng/ml (a)” value is on record as 1,2 ng/ml.
For the compound `CCNc1nc(O)nc(NC(C)(C)C)n1` [OH-Terbuthylazin, Hydroxyterbuthylazin], the “% cross-reactivity (b)” value in experiment [1] is recorded as 5,6%. For the same compound, the “I 50 ng/ml (a)” value in experiment [1] is 8 ng/mL; in experiment [2] it was 19 ng/mL; in experiment [3], 3,3 ng/ml. Also, the “% cross-reactivity (c)” value is listed as 5,0% in experiment [2] and 15,2% in experiment [3].
For `COc1nc(NC(C)C)nc(NC(C)C)n1` [Prometon], in experiment [1], the “% cross-reactivity (b)” value is recorded as 75,0% and the “I 50 ng/ml (a)” value is listed as 0,6 ng/ml.
Taken in the same sequence, the figures for `CSc1nc(NC(C)C)nc(NC(C)C)n1` [Prometryn] were 56,3% and 0,8 ng/ml.
In the case of `CC(C)Nc1nc(Cl)nc(NC(C)C)n1` [Propazin], in experiment [1], the “% cross-reactivity (b)” value is recorded as 90,0% and the “I 50 ng/ml (a)” value is 0,5 ng/ml. In experiment [2], the “% cross-reactivity (c)” value is recorded as <0,1% and the “I 50 ng/ml (a)” value was over 1000 ng/mL. For the same compound, in experiment [3], the “% cross-reactivity (c)” value is <0,05% and the “I 50 ng/ml (a)” value is over 1000 ng/mL.
Take `CCNc1nc(Cl)nc(NCC)n1` [Simazin]: in experiment [1], the “% cross-reactivity (b)” value is given as 2,5% and the “I 50 ng/ml (a)” value is 18 ng/mL.
On the same counts, the results for `CCNc1nc(NCC)nc(SC)n1` [Simetryn] are 1,7% and 27 ng/mL.
On the same counts, the results for `CCNc1nc(Cl)nc(NC(C)(C)C)n1` [Terbuthylazin] are 5,0% and 9 ng/mL.
As to `CCNc1nc(Cl)nc(N(CC)CC)n1` [Trietazin], in experiment [1], the “% cross-reactivity (b)” value is on record as 11,3% and the “I 50 ng/ml (a)” value is 4 ng/mL.
